According to publication PMC11266668, “Unraveling the mechanism of small molecule induced activation of Staphylococcus aureus signal peptidase IB” (Communications Biology, 2024):
≈ marks a conversion by molar mass, not a printed value. Where “and” joins values, the source holds several entries; their conditions need not be identical. Identical values can stand only once.

Key:
[1] = molecular target: T1, wt SpsB (Staphylococcus aureus, UniProt P0A070); assay: FRET-based signal peptidase assay with membrane-bound SpsB (wt); assay type: biochemical, S. aureus; settings: for wt A4 (normalized activity): replicates
T1 construct: recombinantly expressed full-length S. aureus SpsB (wt) or mutants; made in house; host or cells: E. coli BL21(DE3)pLysS, membrane fraction
Method: (§1) For preparation of E. coli membrane fractions harboring overexpressed S. aureus SpsB, E. coli BL21(DE3) pLysS cells harboring pET-55-DEST-fl-SpsB or respective mutant plasmids (F67A, Y75A, F158A, Q165A, F67A-Y75A, F67A-F158A, Y75A-F158A, F67A-Y75A-F158A) were grown in LB medium (supplemented with Ampicillin (100 µg/mL) and Chloramphenicol (34 µg/mL)) at 37°C (200 rpm) to OD600 ≈ 0.6 and protein overexpression was induced by the addition of isopropyl-1-thio-β-galactopyranoside (IPTG, 0.5 mM). After incubation (22 °C, 200 rpm, 3 h), cells were harvested by centrifugation (6000 × g, 4 °C, 10 min) and subsequently washed with PBS. The cell pellet was resuspended in 5 mL Tris-HCl buffer (50 mM, pH = 7.5) and lysed using a bead beater homogenizer (3 cycles: 5500 rpm for 45 s, 30 s cooling; Precellys Ceramic Kit CK01L, 7.0 mL tubes; Precellys 24 Homogenizer, Bertin Technologies). The lysate was centrifuged (12,000 × g, 4 °C, 10 min) to remove intact cells and debris. Membranes were collected from supernatant (39,000 × g, 4 °C, 75 min) and resuspended in ice-cold sodium phosphate buffer (50 mM, pH 7.5). Protein concentration was measured using the Pierce BCA Protein assay kit (Thermo Fisher Scientific, Pierce Biotechnology) and snap-frozen aliquots were stored at −80 °C.
(§2) Signal cleavage activities of recombinantly expressed full-length S. aureus SpsB (wt) or mutants (F67A, Y75A, F158A, Q165A, F67A-Y75A, F67A-F158A, Y75A-F158A, F67A-Y75A-F158A) in E. coli membranes were measured using a Förster Resonance Energy Transfer (FRET) assay as previously described[20],[36].
A synthetic peptide substrate based on SceD modified by 4-(4- dimethylaminophenylazo)benzoic (DABCYL) acid and 5-((2-aminoethyl)amino)-1- naphthalenesulfonic acid (EDANS) was used (DABCYL-[…]-EDANS, AnaSpec) as FRET substrate. Assays were performed with overexpressed wildtype SpsB (wt) or mutant (F67A, Y75A, F158A, Q165A, F67A-Y75A, F67A-F158A, Y75A-F158A, F67A-Y75A-F158A) in E. coli membranes. As controls for background activity, respective E. coli membranes without IPTG induction were used (see Experimental procedure “Preparation of E. coli membrane (control) fractions. Membranes containing recombinant wildtype SpsB or mutant (50 µg/mL membrane concentration, 100 µL/well final volume, sodium phosphate buffer, 50 mM, pH 7.5, addition of detergent if indicated; final concentrations in buffer: 0.1% CHAPS, 0.001% NP-40 or 0.1% Tween) were pre-treated with PK150, Arylomycin A4 or DMSO as a control (final concentration 1%) at 37 °C for 5 min. After addition of FRET substrate (10 µM final substrate concentration; final DMF concentration from substrate stock 1%), fluorescence turnover was monitored by an Infinite™ M Nano Tecan 200Pro reader (340 nm excitation and 510 nm emission wavelengths, fluorescence top reading mode) at 37 °C for at least 2 h.
The assay was performed in technical triplicates for at least three biologically independent experiments (n ≥ 3). Significance of cleavage activity was determined via a two-tailed Students t-test for comparison of membranes treated with DMSO to PK150.

[2] = molecular target: T2, SpsB F158A mutant (Staphylococcus aureus, UniProt P0A070, F158A); assay: FRET-based signal peptidase assay with membrane-bound SpsB, F158A mutant; assay type: biochemical, S. aureus; settings: for F158A A4 (normalized activity): replicates
T2 construct: recombinantly expressed full-length S. aureus SpsB (wt) or mutants; made in house; host or cells: E. coli BL21(DE3)pLysS, membrane fraction
T2 sequence (P0A070 1-191 F158A): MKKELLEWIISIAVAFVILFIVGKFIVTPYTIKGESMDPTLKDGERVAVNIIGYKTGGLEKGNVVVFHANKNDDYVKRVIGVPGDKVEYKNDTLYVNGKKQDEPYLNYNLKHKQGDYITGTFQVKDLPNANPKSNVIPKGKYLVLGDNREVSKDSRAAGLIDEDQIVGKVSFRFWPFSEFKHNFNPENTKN
Method: Cloning of full-length SpsB (fl-SpsB) was performed using the Invitrogen Gateway Technology in previous works by Le et al.. fl-SpsB was cloned into the destination vector pET-55-DEST (Novagen) and transformed into chemically competent E. coli BL21(DE3)pLysS cells (Promega) to prevent leaky protein overexpression. Plasmid DNA of wildtype SpsB pET-55-DEST-fl-SpsB was purified using a plasmid Miniprep Kit (peqGOLD Plasmid Miniprep Kit II, VWR Peqlab) according to the manufacturer’s instructions and used as template for all single point mutations (F67A, Y75A, F158A, Q165A). For double (F67A-Y75A, F67A-F158A, Y75A-F158A) or triple point (F67A-Y75A-F158A) mutations, the respective pET-55-DEST-fl-SpsB single point mutation or double point mutation plasmids were isolated and used as template for site-directed mutagenesis. Point mutation primers (Sigma) were designed based on the pET-55-dest-fl-SpsB construct according to the manufacturer’s instructions (Agilent). Primer sequences and order of point mutation introduction for all point mutations are listed in Supplementary Table S4. QuikChange site-directed mutagenesis PCR reactions were performed using either Phusion High-Fidelity DNA Polymerase (New England BioLabs, mutations: F67A, Q165A) or Q5 High-Fidelity DNA Polymerase (New England BioLabs, mutations: Y75A, F158A, F67A-Y75A, F67A-F158A, Y75A-F158A, F67A-Y75A-F158A) using the cycle listed below (Supplementary Table S5). The PCR mixture contained 10 µL GC buffer (NEB), 1 µL dNTP mix (10 mM), 1 µL forward primer (10 µM), 1 µL reverse primer (10 µM), 1 µL plasmid template (25 – 50 ng), 1.5 µL DMSO and 1 µL Phusion or Q5 High Fidelity DNA polymerase (NEB) and 33 µL ddH2O.
as §1, §2
A synthetic peptide substrate based on SceD modified by 4-(4- dimethylaminophenylazo)benzoic (DABCYL) acid and 5-((2-aminoethyl)amino)-1- naphthalenesulfonic acid (EDANS) was used (DABCYL-[…]-EDANS, AnaSpec) as FRET substrate. Assays were performed with overexpressed wildtype SpsB (wt) or mutant (F67A, Y75A, F158A, Q165A, F67A-Y75A, F67A-F158A, Y75A-F158A, F67A-Y75A-F158A) in E. coli membranes. […]

[3] = system: S. aureus NCTC 8325; design: method as in Le et al., Nat Chem. 2020; settings: ref Le et al., Nat Chem. 2020; cited from earlier work

For `C[S+](C)[O-]` [DMSO], the “wt DMSO + 0.001% NP-40 norm. value” ([1]; 0.001% NP-40, normalized to DMSO + 0.001% NP-40 (100), single biological replicates) was 144.811 and 130.505, the “wt DMSO + 0.01% Tween norm. value” ([1]; 0.01% Tween, normalized to DMSO + 0.01% Tween (100), single biological replicates) was 133.237 and 138.302 and the “wt DMSO + 0.1% Chaps norm. value” ([1]; 0.1% Chaps, normalized to DMSO + 0.1% Chaps (100), single biological replicates) was 187.838 and 176.739.
In the case of `CCC(C)CCCCCCCCC(=O)N(C)[C@H](CO)C(=O)N[C@H](C)C(=O)NCC(=O)N(C)C1C(=O)N[C@@H](C)C(=O)NC(C(=O)O)Cc2ccc(O)c(c2)-c2cc1ccc2O` (stereo partly drawn) [Arylomycin A4], the “activity observed (comment)” value ([1]; >= 6.25 µM A4, wt) is reported as “no activity observed >= 6.25 µM A4”, the “wt A4 (normalized activity)” value ([1]; A4 0.195uM) is reported as 45.9128 and 47.6989 and 41.1571 and 57.7909 and the “wt A4 (normalized activity)” value ([1]; A4 0.39uM) is reported as 29.005 and 27.5696 and 32.0075 and 46.11. The “wt A4 (normalized activity)” value ([1]; A4 0.78uM) was 22.2989 and 17.0381 and 18.021 and 27.9093, the “wt A4 (normalized activity)” value ([1]; A4 1.5625uM) was 12.8972 and 7.451 and 11.5505 and 15.4289 and the “wt A4 (normalized activity)” value ([1]; A4 3.125uM) was 11.0377 and 3.5503 and 8.876 and 8.105. The “wt A4 (normalized activity)” value ([1]; A4 0,006uM) was 95.8032 and 76.7916 and 108.843, the “wt A4 (normalized activity)” value ([1]; A4 6.25uM) was 6.541 and -3.189 and 3.474 and 4.294 and the “wt A4 (normalized activity)” value ([1]; A4 0,012uM) was 85.1742 and 80.5391 and 106.049. For the same compound, the “wt A4 (normalized activity)” value ([1]; A4 12.5uM) was 6.292, the “wt A4 (normalized activity)” value ([1]; A4 0,024uM) was 82.0951 and 107.605 and 99.2001 and the “wt A4 (normalized activity)” value ([1]; A4 25uM) was 5.273. The “wt A4 (normalized activity)” value ([1]; A4 0,048uM) was 88.089 and 72.2661 and 88.1109, the “wt A4 (normalized activity)” value ([1]; A4 50uM) was 0 and the “wt A4 (normalized activity)” value ([1]; A4 0,097uM) was 68.2227 and 67.6529 and 63.3355 and 86.9713. The IC50 ([1]; wt) was 210 nM, the “activity observed (comment)” value ([2]; >= 6.25 µM A4, F158A) was “no activity observed >= 6.25 µM A4” and the “F158A A4 (normalized activity)” value ([2]; A4 0,39µM) was 32.4463 and 49.9171 and 42.4421 and 52.4288. The “F158A A4 (normalized activity)” value ([2]; A4 0,78µM) was 16.172 and 26.1385 and 26.2791 and 38.6178, the “F158A A4 (normalized activity)” value ([2]; A4 0,006µM) was 114.109 and 96.9597 and 113.52 and the “F158A A4 (normalized activity)” value ([2]; A4 0,012µM) was 105.97 and 95.3486 and 96.5076. For the same compound, the “F158A A4 (normalized activity)” value ([2]; A4 0,024µM) was 106.863 and 85.3442 and 101.455, the “F158A A4 (normalized activity)” value ([2]; A4 25uM) was 1.625 and the “F158A A4 (normalized activity)” value ([2]; A4 0,049µM) was 49.0532 and 88.7486 and 79.7833 and 90.4487. For the same compound, the “F158A A4 (normalized activity)” value ([2]; A4 50uM) was 0, the “F158A A4 (normalized activity)” value ([2]; A4 0,097µM) was 43.0655 and 77.8288 and 72.5853 and 85.1042 and the “F158A A4 (normalized activity)” value ([2]; A4 0,195µM) was 35.3889 and 69.8941 and 59.8004 and 66.9013. For the same compound, the “F158A A4 (normalized activity)” value ([2]; A4 3,125µM) was 9.135 and 8.856 and 10.0772 and 7.1542, the “F158A A4 (normalized activity)” value ([2]; A4 6,25µM) was 5.328 and 0 (3×) and the “F158A A4 (normalized activity)” value ([2]; A4 12,5uM) was 3.344. For the same compound, the “F158A A4 (normalized activity)” value ([2]; A4 1,5626µM) was 13.3342 and 20.0153 and 23.1869 and 21.923 and the IC50 ([2]; F158A mutant) was 229 nM.
For `C#CCCC1(CCOC(=O)c2ccc(NC(=O)Nc3ccc(Cl)c(C(F)(F)F)c3)cc2)N=N1` [PK150-P, 2-(3-(But-3-inyl)-3H-diazirin-3-yl)ethyl4-(3-(4-Chloro-3trifluoromethylphenyl)ureido) benzoate], the MIC [3] is listed as 1.0 µM (≈ 0.479 µg/mL).
